Key:
Ba/F3-Syk cells = target: T1, Ba/F3-Syk cells (Homo sapiens, UniProt P43405); test: Ba/F3 Proliferation Assay, Ba/F3-Syk cells (Resazurin); format: cell-based; settings: 48-hour incubation
T1 construct: fused on or other part: Possible but unprinted fusion partner: TEL (ETV6), the usual partner for Ba/F3 lines transformed by Syk; Nothing on a partner is printed

[1] = tested on: Ba/F3-WT (wild type) cells; test: Ba/F3 Proliferation Assay, Ba/F3-WT (wild type) cells with mIL-3 (Resazurin); format: cell-based; settings: Mus musculus, BaF3, 48 h, Ba/F3-WT cells +mIL-3, 48-hour incubation

## Cn1ccc(-c2cc(OC[C@@H]3CNCCO3)c3cncnc3c2)c1 [Compound 4.3, 7-(1-methyl-1H-pyrrol-3-yl)-5-{[(2S)-morpholin-2-yl]methoxy} quinazoline]
Ba/F3-Syk cells
  EC50: 586 nM
[1]
  EC50: 5010 nM

## CCn1ccc(-c2cc3ncccc3c(OC[C@@H]3CNCCO3)n2)c1 [Compound 6.1, 7-(1-ethyl-1H-pyrrol-3-yl)-5-{[(2S)-morpholin-2-yl]methoxy}-1,6-naphthyridine]
Ba/F3-Syk cells
  EC50: 38.8 nM
[1]
  EC50: 2660 nM

## c1cnc2cc(-c3ccn(C4CCC4)c3)nc(OC[C@@H]3CNCCO3)c2c1 [Compound 6.3, 7-(1-cyclobutyl-1H-pyrrol-3-yl)-5-{[(2S)-morpholin-2-yl]methoxy}-1,6-naphthyridine]
Ba/F3-Syk cells
  EC50: 51.9 nM
[1]
  EC50: 2460 nM

## c1cnc2cc(-c3ccn(CC4CC4)c3)nc(OC[C@@H]3CNCCO3)c2c1 [Compound 6.4, 7-[1-(cyclopropylmethyl)-1H-pyrrol-3-yl]-5-{[(2S)-morpholin-2-yl]methoxy}-1,6-naphthyridine]
Ba/F3-Syk cells
  EC50: 74.8 nM
[1]
  EC50: 2650 nM

## FC(F)Cn1cc(-c2cc3ncccc3c(OC[C@@H]3CNCCO3)n2)cn1 [Compound 6.6, 7-[1-(2,2-difluoroethyl)-1H-pyrazol-4-yl]-5-{[(2S)-morpholin-2-yl]methoxy}-1,6-naphthyridine]
Ba/F3-Syk cells
  EC50: 81.9 nM
[1]
  EC50: 1920 nM

## F/C=C\n1cc(-c2cc3ncccc3c(OC[C@@H]3CNCCO3)n2)cn1 [Compound 6.7, 7-{1-[(1Z)-2-fluoroethenyl]-1H-pyrazol-4-yl}-5-{[(2S)-morpholin-2-yl]methoxy}-1,6-naphthyridine]
Ba/F3-Syk cells
  EC50: 113 nM
[1]
  EC50: 3400 nM

## F/C=C/n1cc(-c2cc3ncccc3c(OC[C@@H]3CNCCO3)n2)cn1 [Compound 6.8, 7-{1-[(1E)-2-fluoroethenyl]-1H-pyrazol-4-yl}-5-{[(2S)-morpholin-2-yl]methoxy}-1,6-naphthyridine]
Ba/F3-Syk cells
  EC50: 181 nM
[1]
  EC50: 4880 nM

## c1cnc2cc(-c3cnn(CC4CC4)c3)nc(OC[C@@H]3CNCCO3)c2c1 [Compound 6.12, 7-[1-(cyclopropylmethyl)-1H-pyrazol-4-yl]-5-{[(2S)-morpholin-2-yl]methoxy}-1,6-naphthyridine]
Ba/F3-Syk cells
  EC50: 66.7 nM
[1]
  EC50: 994 nM

## CC1(C)CNC[C@@H](COc2nc(-c3ccn(C4CCC4)c3)cc3ncccc23)O1 [Compound 6.14, 7-(1-cyclobutyl-1H-pyrrol-3-yl)-5-{[(2S)-6,6-dimethylmorpholin-2-yl]methoxy}-1,6-naphthyridine]
Ba/F3-Syk cells
  EC50: 14.3 nM
[1]
  EC50: 1800 nM

## CC1(C)CNC[C@@H](COc2nc(-c3ccn(CC4CC4)c3)cc3ncccc23)O1 [Compound 6.15, 7-[1-(cyclopropylmethyl)-1H-pyrrol-3-yl]-5-{[(2S)-6,6-dimethylmorpholin-2-yl]methoxy}-1,6-naphthyridine]
Ba/F3-Syk cells
  EC50: 20.3 nM
[1]
  EC50: 2340 nM

## FC1(F)CC1n1ccc(-c2cc3ncccc3c(OC[C@@H]3CNCCO3)n2)c1 (stereo partly drawn) [Compound 6.17, 7-[1-(2,2-difluorocyclopropyl)-1H-pyrrol-3-yl]-5-{[(2S)-morpholin-2-yl]methoxy}-1,6-naphthyridine]
Ba/F3-Syk cells
  EC50: 79.9 nM
[1]
  EC50: 2400 nM

## CC1(C)CNC[C@@H](COc2nc(-c3ccn(C4CC4(F)F)c3)cc3ncccc23)O1 (stereo partly drawn) [Compound 6.18, 7-[1-(2,2-difluorocyclopropyl)-1H-pyrrol-3-yl]-5-{[(2S)-6,6-dimethylmorpholin-2-yl]methoxy}-1,6-naphthyridine]
Ba/F3-Syk cells
  EC50: 36.2 nM
[1]
  EC50: 3290 nM

## CC1(C)CNC[C@@H](COc2nc(-c3cnn(CC4CC4)c3)cc3ncccc23)O1 [Compound 6.21, 7-[1-(cyclopropylmethyl)-1H-pyrazol-4-yl]-5-{[(2S)-6,6-dimethylmorpholin-2-yl]methoxy}-1,6-naphthyridine]
Ba/F3-Syk cells
  EC50: 12.6 nM
[1]
  EC50: 1510 nM

## CC(C)n1ccc(-c2cc3ncccc3c(OC[C@@H]3CNCCCO3)n2)c1 [Compound 6.24, 5-{[(2S)-1,4-oxazepan-2-yl]methoxy}-7-[1-(propan-2-yl)-1H-pyrrol-3-yl]-1,6-naphthyridine]
Ba/F3-Syk cells
  EC50: 16.4 nM
[1]
  EC50: 2820 nM

## FC(F)Cn1cc(-c2cc3ncccc3c(OC[C@@H]3CNCCCO3)n2)cn1 [Compound 6.27, 7-[1-(2,2-difluoroethyl)-1H-pyrazol-4-yl]-5-{[(2S)-1,4-oxazepan-2-yl]methoxy}-1,6-naphthyridine]
Ba/F3-Syk cells
  EC50: 52.2 nM
[1]
  EC50: 5590 nM

## COCCn1ccc(-c2cc3ncccc3c(O[C@H](C)[C@@H]3CNCCO3)n2)c1 [Compound 6.29, 7-[1-(2-methoxyethyl)-1H-pyrrol-3-yl]-5-[(1R)-1-[(2S)-morpholin-2-yl]ethoxy]-1,6-naphthyridine]
Ba/F3-Syk cells
  EC50: 30.7 nM
[1]
  EC50: 1440 nM

## CCn1ccc(-c2cc3ncccc3c(O[C@H](C)[C@@H]3CNCCO3)n2)c1 [Compound 6.31, 7-(1-ethyl-1H-pyrrol-3-yl)-5-[(1R)-1-[(2S)-morpholin-2-yl]ethoxy]-1,6-naphthyridine]
Ba/F3-Syk cells
  EC50: 49.4 nM
[1]
  EC50: 3340 nM

## CC[C@@H](C)n1cc(-c2cc3ncccc3c(OC[C@@H]3CNCCO3)n2)cn1 [Compound 6.32, 7-{1-[(2R)-butan-2-yl]-1H-pyrazol-4-yl}-5-{[(2S)-morpholin-2-yl]methoxy}-1,6-naphthyridine]
Ba/F3-Syk cells
  EC50: 92 nM
[1]
  EC50: 2020 nM

## CC[C@@H](C)n1cc(-c2cc3ncccc3c(OC[C@@H]3CNCC(C)(C)O3)n2)cn1 [Compound 6.33, 7-{1-[(2R)-butan-2-yl]-1H-pyrazol-4-yl}-5-{[(2S)-6,6-dimethylmorpholin-2-yl]methoxy}-1,6-naphthyridine]
Ba/F3-Syk cells
  EC50: 49.3 nM
[1]
  EC50: 3760 nM

## CC[C@H](C)n1cc(-c2cc3ncccc3c(OC[C@@H]3CNCCO3)n2)cn1 [Compound 6.34, 7-{1-[(2S)-butan-2-yl]-1H-pyrazol-4-yl}-5-{[(2S)-morpholin-2-yl]methoxy}-1,6-naphthyridine]
Ba/F3-Syk cells
  EC50: 91.8 nM
[1]
  EC50: 2080 nM

## CC[C@H](C)n1cc(-c2cc3ncccc3c(OC[C@@H]3CNCC(C)(C)O3)n2)cn1 [Compound 6.35, 7-{1-[(2S)-butan-2-yl]-1H-pyrazol-4-yl}-5-{[(2S)-6,6-dimethylmorpholin-2-yl]methoxy}-1,6-naphthyridine]
Ba/F3-Syk cells
  EC50: 23.6 nM
[1]
  EC50: 2300 nM

## CC1(Cn2cc(-c3cc4ncccc4c(OC[C@@H]4CNCCO4)n3)cn2)COC1 [Compound 6.36]
Ba/F3-Syk cells
  EC50: 81.6 nM
[1]
  EC50: 1390 nM

## FC1(F)CC(Cn2cc(-c3cc4ncccc4c(OC[C@@H]4CNCCO4)n3)cn2)C1 [Compound 6.37]
Ba/F3-Syk cells
  EC50: 60.3 nM
[1]
  EC50: 560 nM

## CC1(C)CNC[C@@H](COc2nc(-c3cnn(CC4CC(F)(F)C4)c3)cc3ncccc23)O1 [Compound 6.38, 7-{1-[(3,3-difluorocyclobutyl)methyl]-1H-pyrazol-4-yl}-5-{[(2S)-6,6-dimethylmorpholin-2-yl]methoxy}-1,6-naphthyridine]
Ba/F3-Syk cells
  EC50: 25.9 nM
[1]
  EC50: 972 nM

## CC(F)(F)Cn1cc(-c2cc3ncccc3c(OC[C@@H]3CNCC(C)(C)O3)n2)cn1 [Compound 6.39, 7-[1-(2,2-difluoropropyl)-1H-pyrazol-4-yl]-5-{[(2S)-6,6-dimethylmorpholin-2-yl]methoxy}-1,6-naphthyridine]
Ba/F3-Syk cells
  EC50: 21.4 nM
[1]
  EC50: 1520 nM

## CC(F)(F)Cn1cc(-c2cc3ncccc3c(OC[C@@H]3CNCCO3)n2)cn1 [Compound 6.40, 7-[1-(2,2-difluoropropyl)-1H-pyrazol-4-yl]-5-{[(2S)-morpholin-2-yl]methoxy}-1,6-naphthyridine]
Ba/F3-Syk cells
  EC50: 59.8 nM
[1]
  EC50: 1440 nM

## FC1(F)CC(Cn2ccc(-c3cc4ncccc4c(OC[C@@H]4CNCCO4)n3)c2)C1 [Compound 6.42, 7-{1-[(3,3-difluorocyclobutyl)methyl]-1H-pyrrol-3-yl}-5-{[(2S)-morpholin-2-yl]methoxy}-1,6-naphthyridine]
Ba/F3-Syk cells
  EC50: 15.1 nM
[1]
  EC50: 838 nM

## CC(F)(F)Cn1ccc(-c2cc3ncccc3c(OC[C@@H]3CNCCO3)n2)c1 [Compound 6.43, 7-[1-(2,2-difluoropropyl)-1H-pyrrol-3-yl]-5-{[(2S)-morpholin-2-yl]methoxy}-1,6-naphthyridine]
Ba/F3-Syk cells
  EC50: 14.9 nM
[1]
  EC50: > 1000 nM

## c1cnc2cc(-c3cnn([C@H]4CCOC4)c3)nc(OC[C@@H]3CNCCO3)c2c1 [Compound 6.44, 5-{[(2S)-morpholin-2-yl]methoxy}-7-{1-[(3S)-oxolan-3-yl]-1H-pyrazol-4-yl}-1,6-naphthyridine]
Ba/F3-Syk cells
  EC50: 32.9 nM
[1]
  EC50: > 1000 nM

## c1cnc2cc(-c3cnn([C@@H]4CCOC4)c3)nc(OC[C@@H]3CNCCO3)c2c1 [Compound 6.45, 5-{[(2S)-morpholin-2-yl]methoxy}-7-{1-[(3R)-oxolan-3-yl]-1H-pyrazol-4-yl}-1,6-naphthyridine]
Ba/F3-Syk cells
  EC50: 68.7 nM
[1]
  EC50: > 1000 nM

## CC(C)n1ccc(-c2cc(OC[C@@H]3CNCCO3)c3cccnc3c2)c1 [Compound 7.1, 5-{[(2S)-morpholin-2-yl]methoxy}-7-[1-(propan-2-yl)-1H-pyrrol-3-yl]quinoline]
Ba/F3-Syk cells
  EC50: 47.9 nM
[1]
  EC50: 2780 nM

## c1cnc2cc(-c3ccn(C4CCC4)c3)cc(OC[C@@H]3CNCCO3)c2c1 [Compound 7.3, 7-(1-cyclobutyl-1H-pyrrol-3-yl)-5-{[(2S)-morpholin-2-yl]methoxy}quinoline]
Ba/F3-Syk cells
  EC50: 74 nM
[1]
  EC50: 2880 nM

## CC(C)n1ccc(-c2cc(OC[C@@H]3CNCC(C)(C)O3)c3cccnc3c2)c1 [Compound 7.4, 5-{[(2S)-6,6-dimethylmorpholin-2-yl]methoxy}-7-[1-(propan-2-yl)-1H-pyrrol-3-yl]quinoline]
Ba/F3-Syk cells
  EC50: 29.7 nM
[1]
  EC50: 2690 nM

## CC1(C)CNC[C@@H](COc2cc(-c3ccn(C4CCC4)c3)cc3ncccc23)O1 [Compound 7.5, 7-(1-cyclobutyl-1H-pyrrol-3-yl)-5-{[(2S)-6,6-dimethylmorpholin-2-yl]methoxy}quinoline]
Ba/F3-Syk cells
  EC50: 36 nM
[1]
  EC50: 2100 nM

## FC1(F)CC1n1ccc(-c2cc(OC[C@@H]3CNCCO3)c3cccnc3c2)c1 (stereo partly drawn) [Compound 7.7, 7-[1-(2,2-difluorocyclopropyl)-1H-pyrrol-3-yl]-5-{[(2S)-morpholin-2-yl]methoxy}quinoline]
Ba/F3-Syk cells
  EC50: 86.5 nM
[1]
  EC50: 4330 nM
